From US20240025883A1, “PYRIMIDIN-2-YL SULFONAMIDE DERIVATIVES” (Hoffmann-La Roche Inc., priority 2021, published 2024)

molecular target: human GPR17 short isoform (Homo sapiens (Human), UniProt Q13304); assay: GPR17 cAMP assay (hGPR17 cAMP, antagonist mode against EC80 of MDL29,951); assay type: cell-based; conditions: CHO-K1 cells stably expressing human GPR17 short isoform; EC80 of agonist MDL29,951; forskolin 15 μM
Method: GPR17 cAMP Assay Protocol:
CHO-K1 cells stably expressing vector containing untagged human GPR17 short isoform (Roche) were cultured at 37° C./5% CO2 in DMEM (Dulbecco's Modified Eagle Medium):F-12 (1:1) supplemented with 10% foetal bovine serum and 400 μg/ml Geneticin.
Changes in intracellular cyclic adenosine monophosphate (cAMP) levels were quantified using the Nano-TRF Detection Assay kit (Roche Diagnostics, Cat. No. 05214386001). This assay allows for direct cAMP quantification in a homogeneous solution, cAMP is detected based on time-resolved fluorescence energy transfer (TR-FRET) and competitive binding of ruthenylated cAMP and endogenous cAMP to an anti-cAMP monoclonal antibody labeled with AlexaFluor-700. The Ruthenium complex serves as the FRET donor and transfers energy to AlexaFluor-700. The FRET signal is inversely proportional to the cAMP concentration.
CHO-GPR17S cells were detached with Accutase and resuspended in assay buffer consisting of Hank's Balanced Salt Solution (HBSS), 10 mM HEPES (4-(2-hydroxyethyl) piperazine-1-ethanesulfonic acid solution) and 0.1% bovine serum albumin (pH 7.4). The cells were seeded in black 384-well plates (Corning) at a density of 10,000 cells/20 μl assay buffer until the addition of compounds.
Test antagonist compounds were serially diluted in dimethyl sulfoxide (DMSO) and spotted in 384-well plates. The compounds were then diluted in HBSS buffer supplemented with an EC80 concentration of MDL29,951 (3-(2-Carboxy-4,6-dichloroindol-3-yl)propionic acid) (GPR17 agonist) plus 3-Isobutyl-1-methylxanthine (IBMX) (0.5 mM final concentration) and added to the cells at room temperature. Forskolin (15 μM final concentration) was added 5 minutes after the test compounds and the cells were incubated at room temperature for 30 minutes. The assay was stopped by adding cAMP detection mix (containing detergents for cell lysis) for 90 minutes at room temperature.
Cellular cAMP was measured using a Paradigm reader (Molecular Devices). The raw data was used to calculate the FRET signal based on the assay's P-factor as per cAMP kit instructions. The data was normalized to the maximal activity of a reference antagonist and dose response curves were fitted to the percent activity of the test compounds using a sigmoidal dose response model (Genedata Screener).

human GPR17 short isoform, sequence (Q13304 29-367): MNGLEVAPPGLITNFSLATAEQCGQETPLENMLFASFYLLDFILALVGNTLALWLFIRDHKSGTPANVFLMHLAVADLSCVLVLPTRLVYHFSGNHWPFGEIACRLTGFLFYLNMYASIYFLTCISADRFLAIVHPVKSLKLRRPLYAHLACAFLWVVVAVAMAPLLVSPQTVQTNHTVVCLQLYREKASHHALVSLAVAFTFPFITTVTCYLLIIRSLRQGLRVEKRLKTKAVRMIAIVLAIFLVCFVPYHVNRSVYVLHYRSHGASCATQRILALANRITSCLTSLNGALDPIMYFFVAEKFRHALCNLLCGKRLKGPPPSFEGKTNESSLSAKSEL

Compound | IC50 [µM]
COc1nc(NS(=O)(=O)c2c[nH]c3nc(Br)ccc23)nc(OC)c1Br [Example 30, 6-bromo-n-(5-bromo-4,6-dimethoxy-pyrimidin-2-yl)-1h-pyrrolo[2,3-b]pyridine-3-sulfonamide] | 0.043
COc1nc(NS(=O)(=O)c2csc3cc(Br)ccc23)ncc1OCC(F)F [Example 157, 6-bromo-N-[5-(2,2-difluoroethoxy)-4-methoxy-pyrimidin-2-yl]benzothiophene-3-sulfonamide] | 0.176
COc1nc(NS(=O)(=O)c2c[nH]c3c(OC4CC4)c(Cl)ccc23)ncc1OCCF [Example 5, 6-chloro-7-(cyclopropoxy)-N-[5-(2-fluoroethoxy)-4-methoxy-pyrimidin-2-yl]-1H-indole-3-sulfonamide] | 0.103
COc1nc(NS(=O)(=O)c2c[nH]c3cc(C4COC4)ccc23)ncc1CC(F)F [Example 272, N-[5-(2,2-difluoroethyl)-4-methoxy-pyrimidin-2-yl]-6-(oxetan-3-yl)-1h-indole-3-sulfonamide] | 1.18
CCCc1cnc(NS(=O)(=O)c2c[nH]c3cc(Cl)ccc23)nc1OC [Example 45, 6-chloro-N-(4-methoxy-5-propyl-pyrimidin-2-yl)-1H-indole-3-sulfonamide] | 0.082
COc1nc(NS(=O)(=O)c2c[nH]c3cc(Cl)ccc23)ncc1CC(F)CF (stereo not drawn) [Example 176, 6-chloro-N-[5-(2,3-difluoropropyl)-4-methoxy-pyrimidin-2-yl]-1H-indole-3-sulfonamide] | 0.047
COc1nc(NS(=O)(=O)c2c[nH]c3cc(Cl)ccc23)nc(C)c1OCC(F)F [Example 20, 6-chloro-N-[5-(2,2-difluoroethoxy)-4-methoxy-6-methyl-pyrimidin-2-yl]-1H-indole-3-sulfonamide] | 0.399
COc1nc(NS(=O)(=O)c2c[nH]c3cc(Cl)ccc23)nc(C2CCOCC2)c1Br [Example 138, N-(5-bromo-4-methoxy-6-tetrahydropyran-4-yl-pyrimidin-2-yl)-6-chloro-1H-indole-3-sulfonamide] | 20.8
COc1nc(NS(=O)(=O)c2c[nH]c3nc(C(F)F)ccc23)nc(OC)c1CCC(F)F [Example 98, 6-(difluoromethyl)-N-[5-(3,3-difluoropropyl)-4,6-dimethoxy-pyrimidin-2-yl]-1H-pyrrolo[2,3-b]pyridine-3-sulfonamide] | 0.025
COc1nc(NS(=O)(=O)c2c[nH]c3cc(Cl)ccc23)ncc1C(C)(F)F [Example 136, 6-chloro-N-[5-(1,1-difluoroethyl)-4-methoxy-pyrimidin-2-yl]-1H-indole-3-sulfonamide] | 0.747
COc1nc(NS(=O)(=O)c2c[nH]c3c(F)c(Cl)ccc23)ncc1CC(F)F [Example 124, 6-chloro-N-[5-(2,2-difluoroethyl)-4-methoxy-pyrimidin-2-yl]-7-fluoro-1H-indole-3-sulfonamide] | 0.034
COc1nc(NS(=O)(=O)c2c[nH]c3nc(Cl)ccc23)nc(OC)c1OCCF [Example 221, 6-chloro-N-[5-(2-fluoroethoxy)-4,6-dimethoxy-pyrimidin-2-yl]-1H-pyrrolo[2,3-b]pyridine-3-sulfonamide] | 0.065
COc1nc(NS(=O)(=O)c2c[nH]c3c(S(C)(=O)=O)c(Cl)ccc23)ncc1CC(F)F [Example 277, 6-chloro-N-[5-(2,2-difluoroethyl)-4-methoxy-pyrimidin-2-yl]-7-mesyl-1h-indole-3-sulfonamide] | 0.718
COc1nc(NS(=O)(=O)c2c[nH]c3cc(C(F)F)ccc23)nc(OC)c1CCC#N [Example 103, N-[5-(2-cyanoethyl)-4,6-dimethoxy-pyrimidin-2-yl]-6-(difluoromethyl)-1H-indole-3-sulfonamide] | 0.011
COc1nc(NS(=O)(=O)c2c[nH]c3cc(Cl)ccc23)nc(OC)c1CC#N [Example 67, 6-chloro-N-[5-(cyanomethyl)-4,6-dimethoxy-pyrimidin-2-yl]-1H-indole-3-sulfonamide] | 0.065
COc1nc(NS(=O)(=O)c2c[nH]c3c(C4CC4)c(Cl)ccc23)ncc1CC(F)F [Example 233, 6-chloro-7-cyclopropyl-N-[5-(2,2-difluoroethyl)-4-methoxy-pyrimidin-2-yl]-1H-indole-3-sulfonamide] | 0.202
COc1nc(NS(=O)(=O)c2c[nH]c3nc(C)ccc23)nc(OC)c1OCC#N [Example 284, N-[5-(Cyanomethoxy)-4,6-Dimethoxy-Pyrimidin-2-Yl]-6-Methyl-1H-Pyrrolo[2,3-b]Pyridine-3-Sulfonamide] | 0.273

Compound | IC50 [µM]
COc1nc(NS(=O)(=O)c2c[nH]c3c(F)c(Cl)ccc23)nc(OC)c1CCC#N [Example 218, 6-chloro-N-[5-(2-cyanoethyl)-4,6-dimethoxy-pyrimidin-2-yl]-7-fluoro-1H-indole-3-sulfonamide] | 0.014
COc1nc(NS(=O)(=O)c2c[nH]c3c(OC(F)F)c(Cl)ccc23)ncc1CC(F)F [Example 188, 6-chloro-N-[5-(2,2-difluoroethyl)-4-methoxy-pyrimidin-2-yl]-7-(difluoromethoxy)-1H-indole-3-sulfonamide] | 0.028
COc1ccc2c(S(=O)(=O)Nc3nc(OC)c(C)c(OC)n3)c[nH]c2c1 [Example 273, N-(4,6-dimethoxy-5-methyl-pyrimidin-2-yl)-6-methoxy-1h-indole-3-sulfonamide] | 0.128
COc1nc(NS(=O)(=O)c2c[nH]c3c2ccc2cccnc23)nc(OC)c1CC(F)F [Example 169, N-[5-(2,2-difluoroethyl)-4,6-dimethoxy-pyrimidin-2-yl]-1H-pyrrolo[3,2-h]quinoline-3-sulfonamide] | 0.02
COc1nc(NS(=O)(=O)c2c[nH]c3c(C)c(Cl)ccc23)ncc1CC(F)F [Example 192, 6-chloro-N-[5-(2,2-difluoroethyl)-4-methoxy-pyrimidin-2-yl]-7-methyl-1H-indole-3-sulfonamide] | 0.02
COc1nc(NS(=O)(=O)c2c[nH]c3cc(Cl)ccc23)nc(OC)c1CCC#N [Example 68, 6-chloro-N-[5-(2-cyanoethyl)-4,6-dimethoxy-pyrimidin-2-yl]-1H-indole-3-sulfonamide] | 0.009
COc1nc(NS(=O)(=O)c2csc3cc(Cl)ccc23)ncc1OCCF [Example 24, 6-chloro-n-[5-(2-fluoroethoxy)-4-methoxy-pyrimidin-2-yl]benzothiophene-3-sulfonamide] | 0.051
COc1nc(NS(=O)(=O)c2c[nH]c3c(F)c(C(F)F)ccc23)ncc1CC(F)F [Example 248, N-[5-(2,2-difluoroethyl)-4-methoxy-pyrimidin-2-yl]-6-(difluoromethyl)-7-fluoro-1H-indole-3-sulfonamide] | 0.367
COc1nc(NS(=O)(=O)c2c[nH]c3nc(Cl)ccc23)ncc1OC(F)F [Example 119, 6-chloro-N-[5-(difluoromethoxy)-4-methoxy-pyrimidin-2-yl]-1H-pyrrolo[2,3-b]pyridine-3-sulfonamide] | 0.161
COc1nc(NS(=O)(=O)c2c[nH]c3nc(C(F)F)ccc23)nc(OC)c1OCC#N [Example 99, N-[5-(cyanomethoxy)-4,6-dimethoxy-pyrimidin-2-yl]-6-(difluoromethyl)-1H-pyrrolo[2,3-b]pyridine-3-sulfonamide] | 0.102
COc1nc(NS(=O)(=O)c2c[nH]c3nc(Br)ccc23)nc(OC)c1C [Example 160, 6-bromo-N-(4,6-dimethoxy-5-methyl-pyrimidin-2-yl)-1H-pyrrolo[2,3-b]pyridine-3-sulfonamide] | 0.011
CCc1ccc2c(S(=O)(=O)Nc3ncc(CC(F)F)c(OC)n3)c[nH]c2c1 [Example 152, N-[5-(2,2-difluoroethyl)-4-methoxy-pyrimidin-2-yl]-6-ethyl-1H-indole-3-sulfonamide] | 0.104
COc1nc(NS(=O)(=O)c2csc3nc(Br)ccc23)ncc1OC(F)(F)CF [Example 147, 6-bromo-N-[4-methoxy-5-(1,1,2-trifluoroethoxy)pyrimidin-2-yl]thieno[2,3-b]pyridine-3-sulfonamide] | 0.104
COc1nc(NS(=O)(=O)c2c[nH]c3cc(Cl)ccc23)nc(OC)c1CCCF [Example 61, 6-chloro-N-[5-(3-fluoropropyl)-4,6-dimethoxy-pyrimidin-2-yl]-1H-indole-3-sulfonamide] | 0.007
COc1nc(NS(=O)(=O)c2c[nH]c3cc(Br)ccc23)nc(OC)c1CCC#N [Example 93, 6-bromo-N-[5-(2-cyanoethyl)-4,6-dimethoxy-pyrimidin-2-yl]-1H-indole-3-sulfonamide] | 0.01
COc1nc(NS(=O)(=O)c2c[nH]c3c(N(C)C)c(Cl)ccc23)nc(OC)c1CC(F)F [Example 115, 6-chloro-N-[5-(2,2-difluoroethyl)-4,6-dimethoxy-pyrimidin-2-yl]-7-(dimethylamino)-1H-indole-3-sulfonamide] | 0.026
